# Measurements from US6737383B1, “Herbicidal oxadiazolidines” (priority 1999, dated 2004).
# Assays:
# cocklebur = assay: Test B pre/postemergence cocklebur; type: in vivo, Xanthium strumarium
# How it was run: (§1)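 Herbicidal effect was estimated by eye on a ten-point control scale after plants spent twelve to sixteen days in a greenhouse following soil or foliar treatment. Foliar sprays targeted plants at one to four leaves; all doses were formulated in a non-phytotoxic solvent with surfactant.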
# bedstraw = assay: Test B pre/postemergence bedstraw; type: in vivo, Galium aparine
# How it was run: as §1
# crabgrass = assay: Test B pre/postemergence crabgrass; type: in vivo, Digitaria sanguinalis
# How it was run: as §1
# soybean = assay: Test B pre/postemergence soybean; type: in vivo, Glycine max
# How it was run: as §1
# wild oat = assay: Test B pre/postemergence wild oat; type: in vivo, Avena fatua
# How it was run: as §1
# velvetleaf = assay: Test B pre/postemergence velvetleaf; type: in vivo, Abutilon theophrasti
# How it was run: as §1
# sugar beet = assay: Test B pre/postemergence sugar beet; type: in vivo, Beta vulgaris
# How it was run: as §1
# surinam grass = assay: Test B pre/postemergence surinam grass; type: in vivo, Brachiaria decumbens
# How it was run: as §1
# morningglory = assay: Test B pre/postemergence morningglory; type: in vivo, Ipomoea hederacea
# How it was run: as §1
# blackgrass = assay: Test B pre/postemergence blackgrass; type: in vivo, Alopecurus myosuroides
# How it was run: as §1
# pigweed = assay: Test B pre/postemergence pigweed; type: in vivo, Amaranthus retroflexus
# How it was run: as §1
# wheat = assay: Test B pre/postemergence wheat; type: in vivo, Triticum aestivum
# How it was run: as §1
# corn = assay: Test B pre/postemergence corn; type: in vivo, Zea mays
# How it was run: as §1
# giant foxtail = assay: Test B pre/postemergence giant foxtail; type: in vivo, Setaria faberii
# How it was run: as §1
# rape = assay: Test B pre/postemergence rape; type: in vivo, Brassica napus
# How it was run: as §1
# purple nutsedge = assay: Test B pre/postemergence purple nutsedge; type: in vivo, Cyperus rotundus
# How it was run: as §1
# [1] = Preemergence, Rate 62 g/ha, scale of 0 to 10 where 0 is no effect and 10 is complete control
# [2] = Preemergence, Rate 250 g/ha, scale of 0 to 10 where 0 is no effect and 10 is complete control
# [3] = Preemergence, Rate 500 g/ha, scale of 0 to 10 where 0 is no effect and 10 is complete control
# [4] = Rate 62 g/ha, Postemergence, scale of 0 to 10 where 0 is no effect and 10 is complete control
# [5] = Rate 125 g/ha, Postemergence, scale 0 to 10
# [6] = Rate 125 g/ha, Preemergence, scale of 0 to 10 where 0 is no effect and 10 is complete control
# [7] = Rate 500 g/ha, Postemergence, scale 0 to 10, 0 no effect, 10 complete control
smiles,measurement,setting,value
CC(C)=CCCC(C)=CCn1c(=O)on(C(=O)N(c2ccc(F)cc2)C(C)C)c1=O [Compound 262],Cocklebur plant response rating,cocklebur; [1],0
same,Cocklebur plant response rating,cocklebur; [2],0
same,"Plant response rating, Cocklebur",cocklebur; [3],0
same,Cocklebur plant response rating,cocklebur; [4],0
same,Cocklebur plant response rating,cocklebur; [5],0
same,Cocklebur plant response rating,cocklebur; [6],0
same,"Plant response rating (0 to 10; 0 is no effect, 10 is complete control), Cocklebur","cocklebur; Rate 250 g/ha, Postemergence",0
same,Cocklebur plant response rating,cocklebur; [7],0
same,Bedstraw plant response rating,bedstraw; [1],0
same,Bedstraw plant response rating,bedstraw; [2],0
same,"Plant response rating, Bedstraw",bedstraw; [3],0
same,Bedstraw plant response rating,bedstraw; [4],0
same,Bedstraw plant response rating,bedstraw; [5],0
same,Bedstraw plant response rating,bedstraw; [6],0
same,Crabgrass plant response rating,crabgrass; [1],0
same,Crabgrass plant response rating,crabgrass; [2],2
same,"Plant response rating, Crabgrass",crabgrass; [3],3
same,Crabgrass plant response rating,crabgrass; [6],2
same,"Plant response rating (0 to 10; 0 is no effect, 10 is complete control), Crabgrass","crabgrass; Rate 250 g/ha, Postemergence",0
same,Crabgrass plant response rating,crabgrass; [7],0
same,Soybean plant response rating,soybean; [1],0
same,Soybean plant response rating,soybean; [2],0
same,"Plant response rating, Soybean",soybean; [3],0
same,Soybean plant response rating,soybean; [6],0
same,Soybean plant response rating,soybean; [7],4
same,Wild oats plant response rating,wild oat; [1],0
same,Wild oats plant response rating,wild oat; [2],0
same,"Plant response rating, Wild oats",wild oat; [3],0
same,Wild oats plant response rating,wild oat; [6],0
same,Wild oats plant response rating,wild oat; [7],0
same,Velvetleaf plant response rating,velvetleaf; [1],0
same,Velvetleaf plant response rating,velvetleaf; [2],0
same,"Plant response rating, Velvetleaf",velvetleaf; [3],0
same,Velvetleaf plant response rating,velvetleaf; [6],0
same,Velvetleaf plant response rating,velvetleaf; [7],2
same,Sugarbeets plant response rating,sugar beet; [1],0
same,Sugarbeets plant response rating,sugar beet; [2],0
same,"Plant response rating, Sugarbeets",sugar beet; [3],0
same,Sugarbeets plant response rating,sugar beet; [6],0
same,Sugarbeets plant response rating,sugar beet; [7],0
same,B. signalgrass plant response rating,surinam grass; [1],0
same,B. signalgrass plant response rating,surinam grass; [2],0
same,"Plant response rating, B. signalgrass",surinam grass; [3],0
same,B. signalgrass plant response rating,surinam grass; [4],0
same,B. signalgrass plant response rating,"surinam grass; Rate 125 g/ha, Postemergence, scale 0 (no effect) to 10 (complete control)",0
same,B. signalgrass plant response rating,surinam grass; [6],0
same,"Plant response rating (0 to 10; 0 is no effect, 10 is complete control), B. signalgrass","surinam grass; Rate 250 g/ha, Postemergence",0
same,B. signalgrass plant response rating,surinam grass; [7],0
same,Morningglory plant response rating,morningglory; [1],0
same,Morningglory plant response rating,morningglory; [2],0
same,"Plant response rating, Morningglory",morningglory; [3],0
same,Morningglory plant response rating,morningglory; [6],0
same,"Plant response rating (0 to 10; 0 is no effect, 10 is complete control), Morningglory","morningglory; Rate 250 g/ha, Postemergence",5
same,Morningglory plant response rating,morningglory; [7],7
same,Blackgrass plant response rating,blackgrass; [1],0
same,Blackgrass plant response rating,blackgrass; [2],2
same,"Plant response rating, Blackgrass",blackgrass; [3],4
same,Blackgrass plant response rating,blackgrass; [4],0
same,Blackgrass plant response rating,blackgrass; [5],0
same,Blackgrass plant response rating,blackgrass; [6],0
same,"Plant response rating (0 to 10; 0 is no effect, 10 is complete control), Blackgrass","blackgrass; Rate 250 g/ha, Postemergence",0
same,Blackgrass plant response rating,blackgrass; [7],0
same,Redroot pigweed plant response rating,pigweed; [1],0
same,Redroot pigweed plant response rating,pigweed; [2],0
same,"Plant response rating, Redroot pigweed",pigweed; [3],0
same,Redroot pigweed plant response rating,pigweed; [6],0
same,"Plant response rating (0 to 10; 0 is no effect, 10 is complete control), Redroot pigweed","pigweed; Rate 250 g/ha, Postemergence",3
same,Redroot pigweed plant response rating,pigweed; [7],4
same,Wheat plant response rating,wheat; [1],0
same,Wheat plant response rating,wheat; [2],0
same,"Plant response rating, Wheat",wheat; [3],0
same,Wheat plant response rating,wheat; [6],0
same,Wheat plant response rating,wheat; [7],0
same,Corn plant response rating,corn; [1],0
same,Corn plant response rating,corn; [2],0
same,"Plant response rating, Corn",corn; [3],0
same,Corn plant response rating,corn; [4],0
same,Corn plant response rating,corn; [5],0
same,Corn plant response rating,corn; [6],0
same,"Plant response rating (0 to 10; 0 is no effect, 10 is complete control), Corn","corn; Rate 250 g/ha, Postemergence",0
same,Corn plant response rating,corn; [7],0
same,Giant foxtail plant response rating,giant foxtail; [1],0
same,"Plant response rating, Giant foxtail",giant foxtail; [3],7
same,Giant foxtail plant response rating,giant foxtail; [6],3
same,"Plant response rating (0 to 10; 0 is no effect, 10 is complete control), Giant foxtail","giant foxtail; Rate 250 g/ha, Postemergence",0
same,Giant foxtail plant response rating,giant foxtail; [7],0
same,Rape plant response rating,rape; [1],0
same,Rape plant response rating,rape; [2],0
same,"Plant response rating, Rape",rape; [3],0
same,Rape plant response rating,rape; [6],0
same,"Plant response rating (0 to 10; 0 is no effect, 10 is complete control), Rape","rape; Rate 250 g/ha, Postemergence",0
same,Rape plant response rating,rape; [7],0
same,Nutsedge plant response rating,purple nutsedge; [1],0
same,Nutsedge plant response rating,purple nutsedge; [2],0
same,"Plant response rating, Nutsedge",purple nutsedge; [3],0
same,Nutsedge plant response rating,purple nutsedge; [6],0
same,"Plant response rating (0 to 10; 0 is no effect, 10 is complete control), Nutsedge","purple nutsedge; Rate 250 g/ha, Postemergence",0
same,Nutsedge plant response rating,purple nutsedge; [7],0
